Measurements taken from patent publication US4410516A, “1-N(αHydroxy-ω-aminoalkanoyl) derivatives of 5,3',4'-trideoxy- or 5,3', 4'-trideoxy-6'-N- methyl- or 5, 3', 4',6"-tetradeoxykannamyci B and production thereof” (Zaidan Hojin Biseibutsu Kagaku Kenkyu Kai, priority 1981, dated 1983).
Values after ≈ are worked out from the molar mass of the structure shown. Read-outs that look alike come from different tables or passages of the source.

Key:
[1] = tested on: Staphylococcus aureus Smith; assay: Minimum inhibitory concentration, serial dilution on nutrient agar; format: cell-based; details: 37° C., 18 hours incubation
[2] = tested on: Staphylococcus epidermidis 109; assay: as above; format: cell-based
[3] = tested on: Bacillus subtilis NRRL B-558; assay: as above; format: cell-based; details: NRRLB558, 37° C., 18 hours incubation
[4] = tested on: Escherichia coli K-12 R 388; assay: as above; format: cell-based; details: K12R388, 18 h
[5] = tested on: Escherichia coli K-12 ML 1629; assay: as above; format: cell-based; details: K12ML1629, nutrient agar, 37° C., 18 hours incubation, read-out: MIC
[6] = tested on: Escherichia coli K-12 ML 1410; assay: as above; format: cell-based
[7] = tested on: Escherichia coli K-12 ML 1410 R81; assay: as above; format: cell-based; details: 18 h
[8] = tested on: Escherichia coli K-12 LA 290 R55; assay: as above; format: cell-based; details: K12LA290R55, 18 h
Escherichia coli W677 = assay: as above; format: cell-based; details: W677, nutrient agar, 37° C., 18 hours incubation, read-out: MIC
Escherichia coli JR255 = assay: as above; format: cell-based; details: JR255, nutrient agar, 37° C., 18 hours incubation, read-out: MIC
[9] = tested on: Klebsiella pneumoniae 22 #3038; assay: as above; format: cell-based
[10] = tested on: Shigella dysenteriae JS 11910; assay: as above; format: cell-based; details: JS11910, 18 h
[11] = tested on: Salmonella enteritidis 1891; assay: as above; format: cell-based; details: Salmonella enterica
Proteus vulgaris OX19 = assay: as above; format: cell-based; details: 37° C., 18 hours incubation
Proteus rettgeri GN311 = assay: as above; format: cell-based; details: Providencia rettgeri, 37° C., 18 hours incubation
Proteus rettgeri GN466 = assay: as above; format: cell-based; details: Providencia rettgeri
Serratia marcescens = assay: as above; format: cell-based; details: 37° C., 18 hours incubation
Providencia 2991 = assay: as above; format: cell-based; details: 37° C., 18 hours incubation
[12] = tested on: Pseudomonas aeruginosa A3; assay: as above; format: cell-based; details: 37° C., 18 hours incubation
[13] = tested on: Pseudomonas aeruginosa H11; assay: as above; format: cell-based; details: H11, nutrient agar, 37° C., 18 hours incubation, read-out: MIC
[14] = tested on: Pseudomonas aeruginosa GN315; assay: as above; format: cell-based; details: GN315, nutrient agar, 37° C., 18 hours incubation, read-out: MIC
[15] = tested on: Pseudomonas aeruginosa B-13; assay: as above; format: cell-based; details: B13, 37° C., 18 hours incubation
[16] = tested on: Pseudomonas aeruginosa PST1; assay: as above; format: cell-based; details: PST1, nutrient agar, 37° C., 18 hours incubation, read-out: MIC
[17] = tested on: Pseudomonas aeruginosa ROS134/PU21; assay: as above; format: cell-based; details: ROS134/PU21, 18 h
[18] = Acute toxicity by intravenous injection in mice; details: mouse, in vivo
bacteria = assay: Antibacterial activity (stated in words); format: cell-based
[19] = K12ML1410, nutrient agar, 37° C., 18 hours incubation, read-out: MIC
[20] = nutrient agar, 37° C., 18 hours incubation, read-out: MIC
[21] = GN466, nutrient agar, 37° C., 18 hours incubation, read-out: MIC
[22] = Staphylococcus epidermidis, 109, nutrient agar, 37° C., 18 hours incubation, read-out: MIC

SMILES	MIC [1] [µg/mL]	MIC [3] [µg/mL]	MIC [4] [µg/mL]	MIC [5] [µg/mL]	MIC [6, 19] [µg/mL]	MIC [8] [µg/mL]	MIC (Escherichia coli W677) [µg/mL]	MIC (Escherichia coli JR255) [µg/mL]	MIC [10] [µg/mL]	MIC (Proteus vulgaris OX19) [µg/mL]	MIC (Proteus rettgeri GN311) [µg/mL]	MIC (Serratia marcescens) [µg/mL]	MIC (Providencia 2991) [µg/mL]	MIC [12] [µg/mL]	MIC [13] [µg/mL]	MIC [14] [µg/mL]	MIC [15] [µg/mL]	MIC [16] [µg/mL]	MIC [17] [µg/mL]	LD50 [18] [mg/kg]	further results
CNC[C@@H]1CC[C@@H](N)[C@@H](O[C@H]2C[C@@H](O[C@H]3O[C@H](CO)[C@@H](O)[C@H](N)[C@H]3O)[C@H](N)C[C@@H]2N)O1 [TrideoxyMKMB, 5,3',4'-trideoxy-6'-N-methylkanamycin B]	0.39 (≈ 0.868 µM)	0.78 (≈ 1.74 µM)	12.5 (≈ 27.8 µM)	25 (≈ 55.6 µM)	25 (≈ 55.6 µM)	100 (≈ 222 µM)	12.5 (≈ 27.8 µM)	100 (≈ 222 µM)	50 (≈ 111 µM)	3.13 (≈ 6.96 µM)	100 (≈ 222 µM)	100 (≈ 222 µM)	> 100	3.13 (≈ 6.96 µM)	25 (≈ 55.6 µM)	25 (≈ 55.6 µM)	100 (≈ 222 µM)	> 100	> 100	50 to 100	MIC ([2]; Staphylococcus epidermidis, 109, 18 h): 6.25 µg/mL (≈ 13.9 µM); MIC [7]: 25 µg/mL (≈ 55.6 µM); MIC [9, 20]: 100 µg/mL (≈ 222 µM); MIC [11, 20]: 25 µg/mL (≈ 55.6 µM); MIC (Proteus rettgeri GN466; [21]): 25 µg/mL (≈ 55.6 µM); antibacterial activity (bacteria): antibacterial activity higher than that of the 5,3',4'-trideoxykanamycin B especially against some resistant strains
C[C@H]1O[C@H](O[C@@H]2C[C@H](O[C@H]3O[C@H](CN)CC[C@H]3N)[C@@H](N)C[C@H]2N)[C@H](O)[C@@H](N)[C@@H]1O [TetradeoxyKMB, 5,3',4',6"-tetradeoxykanamycin B]	< 0.2	< 0.2	3.13 (≈ 7.46 µM)	6.25 (≈ 14.9 µM)		> 100	6.25 (≈ 14.9 µM)	25 (≈ 59.6 µM)	12.5 (≈ 29.8 µM)	1.56 (≈ 3.72 µM)	> 100	100 (≈ 238 µM)	> 100	3.13 (≈ 7.46 µM)	25 (≈ 59.6 µM)	> 100	50 (≈ 119 µM)	> 100	> 100	25 to 50	MIC [2, 22]: 6.25 µg/mL (≈ 14.9 µM); MIC ([6]; K12ML1410, 18 h): 12.5 µg/mL (≈ 29.8 µM); MIC [9, 20]: 100 µg/mL (≈ 238 µM); MIC [11, 20]: 25 µg/mL (≈ 59.6 µM); MIC (Proteus rettgeri GN466; [21]): 25 µg/mL (≈ 59.6 µM); antibacterial activity (bacteria): significantly active against some kinds of bacteria
NCC[C@H](O)C(=O)N[C@@H]1C[C@H](N)[C@@H](O[C@H]2O[C@H](CN)CC[C@H]2N)C[C@H]1O[C@H]1O[C@H](CO)[C@@H](O)[C@H](N)[C@H]1O [AHB-trideoxyKMB, 1-N-[(S)-4-amino-2-hydroxybutyryl]-5,3',4'-trideoxykanamycin B]	< 0.2	< 0.2	0.78 (≈ 1.45 µM)	1.56 (≈ 2.91 µM)	1.56 (≈ 2.91 µM)	3.13 (≈ 5.83 µM)	0.78 (≈ 1.45 µM)	0.39 (≈ 0.727 µM)	3.13 (≈ 5.83 µM)	0.39 (≈ 0.727 µM)	25 (≈ 46.6 µM)	25 (≈ 46.6 µM)	6.25 (≈ 11.6 µM)	0.39 (≈ 0.727 µM)	6.25 (≈ 11.6 µM)	25 (≈ 46.6 µM)	6.25 (≈ 11.6 µM)	6.25 (≈ 11.6 µM)	> 100	25 to 50	MIC [2, 22]: 0.39 µg/mL (≈ 0.727 µM); MIC [7]: 1.56 µg/mL (≈ 2.91 µM); MIC ([9]; 18 h): 3.13 µg/mL (≈ 5.83 µM); MIC ([11]; 18 h): 3.13 µg/mL (≈ 5.83 µM); MIC (Proteus rettgeri GN466; GN466, 18 h): 3.13 µg/mL (≈ 5.83 µM)
